Assay results from paper PMC12687449, “Membrane disruption attenuates agonist potency in prostanoid receptors” (Biochemical Journal, 2025).
Values belong to the molecule of their own block, whether it stands above or below them.

Tests used:
[1] = biological target: EP4 receptor conformation sensor (Homo sapiens, UniProt P35408); assay: FRET-based EP4 receptor conformation sensor stably expressed in HEK293 cells (intact, saponin-permeabilized, membrane fragments); assay type: cell-based
Procedure: (§1) The cells were washed once with external buffer and subsequently incubated 2 minutes for single-cell FRET measurements or 10 minutes for BRET measurements in 0.05% saponin (AppliChem, Darmstadt, Germany) dissolved in internal buffer. Afterward, the cells were washed five times for single-cell FRET measurements or three times for BRET measurements with internal buffer.
(§2) HEK293 cells stably expressing the EP4 receptor, IP receptor, or DP2 receptor conformation sensor were seeded on 15 cm Ø dishes and grown until optical confluence. The cells were washed once with Dulbecco’s PBS (Capricorn Scientific GmbH), without Ca & Mg and Phenol Red (phosphate-buffered saline, PBS). After adding 5 ml PBS to the cells, the dish was treated with liquid nitrogen until the solution was visibly frozen. These dishes were stored at −80°C until the measurements were carried out. On the day of the measurement, the dishes were removed from the freezer and stored at room temperature until the buffer solution had thawed. The material was collected with a cell scraper and centrifuged (5000 rpm/5 min). The supernatant was discarded, the pellet containing the membrane fragments was resuspended with external buffer containing 0.1% BSA and seeded on microplates. […]

[2] = biological target: T1, EP2 receptor conformation sensor (Homo sapiens, UniProt P43116, DEL238-250); assay: FRET-based EP2 receptor conformation sensor, single-cell measurements in HEK293 cells; conditions: saponin-permeabilized cells, 3000 nM PGE2, reference 20 µM PGE2
T1 construct: mT2 insertion and truncation after Q349; expressed in transfected cells
T1 sequence (P43116 with tags, fused parts or gaps DEL238-250): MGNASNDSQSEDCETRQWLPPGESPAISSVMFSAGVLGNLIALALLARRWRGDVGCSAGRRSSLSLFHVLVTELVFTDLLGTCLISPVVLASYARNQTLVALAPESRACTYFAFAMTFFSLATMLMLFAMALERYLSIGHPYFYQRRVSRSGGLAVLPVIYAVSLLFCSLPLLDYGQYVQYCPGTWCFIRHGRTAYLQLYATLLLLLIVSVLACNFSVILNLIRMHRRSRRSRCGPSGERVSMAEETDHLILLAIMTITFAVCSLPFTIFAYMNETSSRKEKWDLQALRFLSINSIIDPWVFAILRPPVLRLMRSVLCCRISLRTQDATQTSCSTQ
Procedure: as §1
The coverslips loaded with stably transfected HEK293 cells containing either the FFA3 receptor, α2A-AR CAM, or ETB receptor conformation sensors were clamped in an Attofluor^TM cell chamber and were washed once with external buffer. Afterward, they were side by side either permeabilized or directly measured at room temperature by the use of an inverted microscope (Elipse Ti2, Nikon, Düsseldorf, Germany), equipped with a 100× oil immersion objective (Plan Apo λ 100 x/1.45 oil ∞/0.17 WD 0.13, Nikon, Düsseldorf, Germany) and dual excitation and dual emission imaging capabilities. […] The fluorescence emission of mT2 and the respective YFP variant was simultaneously collected by a second beamsplitter (488, Chroma, Bellows Falls, Vermont, U.S.A.) and two emission filters (mT2: 474/27, Chroma; YFP: 544/23, Chroma). […] For all single-cell FRET experiments, cells were prospectively selected based on a continuous plasma-membrane fluorescence rim and appropriate fluorescence distribution to ensure a PM-dominant receptor signal. […]

[3] = biological target: ETB receptor (wildtype) (human) (UniProt P24530)
Chain of ETB receptor (wildtype) (human) (P24530 27-442): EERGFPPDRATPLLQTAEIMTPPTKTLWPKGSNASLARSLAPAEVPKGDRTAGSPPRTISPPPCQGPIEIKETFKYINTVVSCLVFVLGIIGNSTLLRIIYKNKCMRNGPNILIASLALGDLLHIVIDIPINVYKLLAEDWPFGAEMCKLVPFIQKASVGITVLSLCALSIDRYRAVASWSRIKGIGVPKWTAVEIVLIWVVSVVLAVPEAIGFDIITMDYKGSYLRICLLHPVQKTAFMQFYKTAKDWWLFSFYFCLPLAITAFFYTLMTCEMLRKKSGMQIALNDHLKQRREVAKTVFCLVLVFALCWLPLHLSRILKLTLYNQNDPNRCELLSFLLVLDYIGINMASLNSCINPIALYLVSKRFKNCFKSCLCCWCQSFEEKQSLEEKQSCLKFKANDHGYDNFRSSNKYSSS

[4] = biological target: T2, DP2 receptor conformation sensor (Homo sapiens, UniProt Q9Y5Y4); assay: FRET-based DP2 receptor conformation sensor, multiple-cell measurements in HEK293 cells or membrane fragments
T2 sequence (Q9Y5Y4 1-231 limits assumed): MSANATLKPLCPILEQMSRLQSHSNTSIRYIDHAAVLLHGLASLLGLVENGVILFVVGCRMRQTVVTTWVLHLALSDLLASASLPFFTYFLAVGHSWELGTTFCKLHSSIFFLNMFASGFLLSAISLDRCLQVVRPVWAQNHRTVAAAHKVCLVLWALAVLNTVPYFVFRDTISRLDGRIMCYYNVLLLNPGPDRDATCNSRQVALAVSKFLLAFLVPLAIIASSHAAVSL
T2 sequence (Q9Y5Y4 248-308 limits assumed): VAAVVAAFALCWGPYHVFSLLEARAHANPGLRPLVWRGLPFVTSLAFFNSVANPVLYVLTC
Procedure: as §2, with “min).” for “min). The supernatant was discarded, the pellet containing the membrane fragments was resuspended with external buffer containing 0.1% BSA and seeded on microplates.”
Intact HEK293 cells stably expressing the EP4 receptor, IP receptor, or DP2 receptor conformation sensors were counted, adjusted to 100,000–120,000 cells per well, and seeded on poly-L-lysine coated microplates one day before measurement. […]
We used a Spark 20M plate reader (Tecan, Männedorf, Switzerland) for multiple-cell FRET measurements of intact cells or membrane fragments. The cells were measured from the bottom and the donor fluorescent protein (mT2) was excited at 430 nm. First, the cells were measured for the baseline emission ratio. […] The emitted donor fluorescence (mT2) and acceptor fluorescence (eYFP) were recorded at 485 nm and 535 nm, respectively. […]

DP2 receptor = biological target: T3, DP2 receptor (Homo sapiens, UniProt Q9Y5Y4); assay: BRET-based G protein activation, wildtype DP2 receptor + Gαo biosensor in HEK293T cells; assay type: cell-based
T3 construct: host or cells: HEK293T (transient)
T3 sequence (Q9Y5Y4 1-395): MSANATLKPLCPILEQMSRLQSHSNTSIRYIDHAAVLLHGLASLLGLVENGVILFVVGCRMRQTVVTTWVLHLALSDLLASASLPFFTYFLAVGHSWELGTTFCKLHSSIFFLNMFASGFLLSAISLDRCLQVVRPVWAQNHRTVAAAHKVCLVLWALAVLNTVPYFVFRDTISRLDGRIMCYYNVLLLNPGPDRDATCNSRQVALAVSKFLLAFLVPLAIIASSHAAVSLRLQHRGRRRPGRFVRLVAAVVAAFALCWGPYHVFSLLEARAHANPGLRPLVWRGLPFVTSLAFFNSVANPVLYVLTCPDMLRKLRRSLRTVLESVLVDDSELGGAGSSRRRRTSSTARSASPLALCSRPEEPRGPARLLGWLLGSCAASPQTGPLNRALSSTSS
Procedure: Two days before BRET measurements were performed, HEK293T cells were transiently transfected with 3 µg of cDNAs containing TP receptor, ETB receptor, DP2 receptor, or S1P3 receptor and 3 µg of cDNAs containing Gβ3-T2A-cpVenus-Gγ9-IRES-Gαq-NLuc or Gβ3-T2A-cpVenus-Gγ9-IRES-Gαo1-NLuc using linear 25 kDa PEI reagent (polyethylenimine, PolyScience Inc., Hirschberg an der Bergstraße, Germany). The ratio between DNA and PEI was 1:3, and 50 µl serum-free DMEM was added per 1 µg DNA. The same amount of serum-free DMEM was also added separately to the PEI solution. DNA-DMEM and PEI-DMEM mixtures were incubated for 5 minutes, followed by incubation of the final mixture for another 10 minutes. […]
Two days before the actual measurement, HEK293T cells were transiently transfected and seeded on microplates. […] The measurements were performed using a Spark 20M plate reader (Tecan) at 37°C. Initially, the cells were measured for the baseline emission ratio. After the baseline measurement, 20 µl of external or internal buffer containing differing concentrations of either U-46619, 4-Ala ET-1, PGD,2 or S1P or external or internal buffer alone were added to the cells and measured. […] The cells were measured from the top and the donor luminescence (NLuc) was recorded at 415 to 470 nm and the acceptor luminescence (cpVenus) at 520 to 590 nm. Data were recorded using SparkControl^TM software. […]

S1P3 receptor = S1P3 receptor (Homo sapiens, UniProt Q99500); assay: BRET-based G protein activation, wildtype S1P3 receptor + Gαq biosensor in HEK293T cells; assay type: cell-based
Chain of S1P3 receptor (Q99500 whole entry): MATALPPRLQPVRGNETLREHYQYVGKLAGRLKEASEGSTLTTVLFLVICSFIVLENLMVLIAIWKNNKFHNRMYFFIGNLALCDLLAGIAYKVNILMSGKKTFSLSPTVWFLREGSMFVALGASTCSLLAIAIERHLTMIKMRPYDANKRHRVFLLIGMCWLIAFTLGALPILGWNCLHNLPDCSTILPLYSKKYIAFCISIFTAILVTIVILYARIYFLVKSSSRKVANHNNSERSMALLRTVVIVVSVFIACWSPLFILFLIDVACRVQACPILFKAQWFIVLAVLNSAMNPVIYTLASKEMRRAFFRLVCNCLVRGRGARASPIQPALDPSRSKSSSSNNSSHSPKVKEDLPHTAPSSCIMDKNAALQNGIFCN
From the text: […] Afterward, the cells were washed five times for single-cell FRET measurements or three times for BRET measurements with internal buffer.
Concentration-response curves were fitted in GraphPad Prism 8 using nonlinear regression (log(agonist) vs. response - variable slope (four parameters)) with the hillslope set to 1, the bottom constrained to 0 and the top to 1 using the following equation: […]

[5] = biological target: T4, TP receptor conformation sensor (Homo sapiens, UniProt P21731); assay: FRET-based TP receptor conformation sensor, single-cell measurements in HEK293 cells; conditions: 1 µM U-46619, reference 8 µM U-46619
T4 sequence (P21731 1-311 limits assumed): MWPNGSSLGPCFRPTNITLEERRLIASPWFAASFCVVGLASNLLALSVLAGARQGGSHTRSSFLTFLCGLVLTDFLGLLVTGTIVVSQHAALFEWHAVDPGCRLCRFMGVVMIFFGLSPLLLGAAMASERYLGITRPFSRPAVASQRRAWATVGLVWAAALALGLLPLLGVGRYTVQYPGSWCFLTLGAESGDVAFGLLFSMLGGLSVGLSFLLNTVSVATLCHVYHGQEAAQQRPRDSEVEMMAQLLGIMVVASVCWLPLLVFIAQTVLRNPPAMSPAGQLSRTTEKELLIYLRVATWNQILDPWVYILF

[6] = saponin-permeabilized cells with 1 µM GTP

Chain of EP4 receptor conformation sensor (P35408 1-332 limits assumed): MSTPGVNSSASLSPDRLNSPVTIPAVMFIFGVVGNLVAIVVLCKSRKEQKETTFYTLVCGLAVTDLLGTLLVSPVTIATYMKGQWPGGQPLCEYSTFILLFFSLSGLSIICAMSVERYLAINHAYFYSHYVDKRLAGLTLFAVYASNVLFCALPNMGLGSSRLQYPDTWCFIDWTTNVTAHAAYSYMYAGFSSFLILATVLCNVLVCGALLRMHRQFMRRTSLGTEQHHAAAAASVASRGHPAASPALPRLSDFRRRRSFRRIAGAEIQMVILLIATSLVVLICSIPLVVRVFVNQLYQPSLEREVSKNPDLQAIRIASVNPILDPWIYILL

activation at 0.3 µM ([1]; HEK293, read-out: normalized response to 10 times EC50): 53%
response to 10 times EC50 ([1]; saponin-permeabilized cells, internal buffer supplemented with 5 mM ATP and 25 µM GTP): 56% ± 1
response to the test concentration normalized to saturating concentration ([1]; saponin-permeabilized cells, internal buffer, 300 nM PGE2, reference 20 µM PGE2): 56% ± 1
response to the test concentration normalized to saturating concentration [2]: about 51% ± 6
Molecule: CCCCC[C@H](O)/C=C/[C@H]1[C@H](O)CC(=O)[C@@H]1C/C=C\CCCC(=O)O [PGE2, (Z)-7-[(1R,2R,3R)-3-hydroxy-2-[(E,3S)-3-hydroxyoct-1-enyl]-5-oxocyclopentyl]hept-5-enoic acid]

BRET-based Gαq biosensor activation in HEK293T cells, concentration-response to 4-Ala ET-1: change of agonist potency in saponin-permeabilized cells with 1 µM GTP against intact cells (Figure 4F) [3]: 15 fold
Molecule: 4-Ala endothelin-1 (peptide)

response to the agonist ([4]; intact cells): strong response
response to the agonist ([4]; membrane fragments): almost no response
EC50 (DP2 receptor; intact HEK293T cells): 0.000562 µM
EC50 (DP2 receptor; [6]): 0.0204 µM
Molecule: CCCCC[C@H](O)/C=C/[C@H]1C(=O)C[C@H](O)[C@@H]1C/C=C\CCCC(=O)O [PGD2, (Z)-7-[(1R,2R,5S)-5-hydroxy-2-[(E,3S)-3-hydroxyoct-1-enyl]-3-oxocyclopentyl]hept-5-enoic acid]

EC50 (S1P3 receptor; intact HEK293T cells): 0.0282 µM
EC50 (S1P3 receptor; [6]): 0.00055 µM
Molecule: CCCCCCCCCCCCC/C=C/[C@@H](O)[C@@H](N)COP(=O)(O)O [S1P, Sphingosine-1-phosphate]

response to the test concentration (about 10 times EC50) normalized to saturating concentration ([5]; intact cells): full response
response to the test concentration normalized to saturating concentration ([5]; saponin-permeabilized cells): 59% ± 1
Molecule: CCCCCC(O)/C=C/C1C2CC(CO2)C1C/C=C\CCCC(=O)O (stereo not drawn) [U-46619, 9,11-dideoxy-9α,11α-methanoepoxy-prosta-5Z,13E-dien-1-oic acid]
